# Where two headings read alike, the source gives them in different places.
# Tested on: SK-MEL-28
# Assay: Screening against cancer cell lines: SK-MEL-28 (Melanoma)
# Format: cell-based
# Excerpt: Screening of Benzamide Derivatives Against Cancer Cell Lines Tables 1 and 2 tabulate by way of example the results obtained for compounds (4) and (6).
# 7 melanoma cancer cell lines were screened against both compound (4) and MS275.
compound,measurement,setting,value
"C=C(CN1CCc2ccccc2C1)c1ccc(C(=O)Nc2ccccc2N)cc1 [Compound (4), N-(2-Amino-phenyl)-4-[1-(3,4-dihydroisoquinolin-2(1H)-ylmethyl)vinyl]benzamide]",GI50,"Homo sapiens, SK-MEL-28, Melanoma, Table 1, read-out: GI50",0.389 µM
same,CC50,"Homo sapiens, SK-MEL-28, Melanoma, Table 1, read-out: LC50 (the source's name)",> 50 µM
same,GI50,"Homo sapiens, SK-MEL-28, melanoma, comparison versus MS275, read-out: potency (quantity not named; values match GI50 of Table 1)",0.39 µM
same,TGI,"SK-MEL-28, Melanoma, Table 1",6.5 µM

# — patent US20080234254A1, “Inhibitors of Histone Deacetylase” (UNIVERSITY OF LEEDS, priority 2004, published 2008)
